# ChEMBL document CHEMBL1806436, “Structure--activity relationship studies of novel arylsulfonylimidazolidinones for their anticancer activity” (Eur J Med Chem, 2011)
# Columns and labels:
# A549 = assay: Anticancer activity against human A549 cells by MTT assay; assay type: functional, cell-based
# COLO 205 = assay: Anticancer activity against human COLO205 cells by MTT assay; assay type: functional, cell-based
# [1] = Anticancer activity against human KATO III cells by MTT assay; assay type: functional, cell-based, KATO III cell
# K562 = assay: Anticancer activity against human K562 cells by MTT assay; assay type: functional, cell-based
# SK-OV-3 = assay: Anticancer activity against human SKOV3 cells by MTT assay; assay type: functional, cell-based
# [2] = Anticancer activity against mouse P388D1 cells by MTT assay; assay type: functional, cell-based
# Mus musculus [3] = assay: Toxicity in human NCI-H23 cells xenografted BALB/c nu/nu mouse assessed as change in body weight at 65 mg/kg, po administered every alternative day for 12 days measured on day 20 (reference value: 1.2 g); assay type: organism-based; design: dose 65 mg/kg, route oral; details: in vivo, 288 h
# Mus musculus [4] = assay: Toxicity in human SW620 cells xenografted BALB/c nu/nu mouse assessed as change in body weight at 65 mg/kg, po administered every alternative day for 12 days measured on day 20 (reference value: 1.1 g); assay type: organism-based, SW-620; design: dose 65 mg/kg, route oral; details: in vivo, 288 h
# NCI-H23 [5] = assay: Anticancer activity against human NCI-H23 cells xenografted in BALB/c nu/nu mouse assessed as tumor growth inhibition at 65 mg/kg, po every alternative day for 12 days measured on day 19; assay type: functional; details: read-out: TGI
# SW-620 [6] = assay: Anticancer activity against human SW620 cells xenografted in BALB/c nu/nu mouse assessed as tumor growth inhibition at 65 mg/kg, po every alternative day for 12 days measured on day 19; assay type: functional; details: read-out: TGI
# Mus musculus [7] = assay: Toxicity in human NCI-H23 cells xenografted BALB/c nu/nu mouse assessed as change in body weight at 1 mg/kg, ip qd for 11 days followed by 2 mg/kg, ip qd on day 12 to day 14 and 3 mg/kg, ip qd on day 15 to day 18 measured on day 20 (reference value: 1.2 g); assay type: organism-based; details: in vivo, 264 h
# Mus musculus [8] = assay: Toxicity in human SW620 cells xenografted BALB/c nu/nu mouse assessed as change in body weight at 1 mg/kg, ip qd for 11 days followed by 2 mg/kg, ip qd on day 12 to day 14 and 3 mg/kg, ip qd on day 15 to day 18 measured on day 20 (reference value: 1.1 g); assay type: organism-based, SW-620; details: in vivo, 264 h
# NCI-H23 [9] = assay: Anticancer activity against human NCI-H23 cells xenografted in BALB/c nu/nu mouse assessed as tumor growth inhibition at 1 mg/kg, ip qd for 11 days followed by 2 mg/kg, ip qd on day 12 to day 14 and 3 mg/kg, ip qd on day 15 to day 18 measured on day 19; assay type: functional
# SW-620 [10] = assay: Anticancer activity against human SW620 cells xenografted in BALB/c nu/nu mouse assessed as tumor growth inhibition at 1 mg/kg, ip qd for 11 days followed by 2 mg/kg, ip qd on day 12 to day 14 and 3 mg/kg, ip qd on day 15 to day 18 measured on day 19; assay type: functional
SMILES,IC50 (A549) [µM],IC50 (COLO 205) [µM],IC50 (K562) [µM],IC50 (SK-OV-3) [µM],IC50 [1] [µM],IC50 [2] [µM],Activity (Mus musculus [3]) [g],Activity (Mus musculus [4]) [g],inhibition in vivo at 65 mg/kg (NCI-H23 [5]) [%],inhibition in vivo at 65 mg/kg (SW-620 [6]) [%],Activity (Mus musculus [7]) [g],Activity (Mus musculus [8]) [g],TGI (NCI-H23 [9]) [%],TGI (SW-620 [10]) [%]
O=C(CCl)NC(=O)N1CCCc2cc(S(=O)(=O)N3CC(c4ccccc4)NC3=O)ccc21 (stereo not given),0.449,9.9,0.515,6.14,2.54,3.87,-0.6,1,58.5,67,,,,
COC(=O)N1CCCc2cc(S(=O)(=O)N3CC(c4ccccc4)NC3=O)ccc21 (stereo not given),1.15,4.01,> 20,3.48,16.5,2.26,,,,,,,,
NC(=O)N1CCCc2cc(S(=O)(=O)N3CC(c4ccccc4)NC3=O)ccc21 (stereo not given),2.54,> 20,3.66,> 20,3.59,12.3,,,,,,,,
O=C(Nc1ccc(Cl)cc1)NS(=O)(=O)c1ccc2c(c1)CCC2 [SULOFENUR],> 20,23.1,19.2,78.2,31.4,> 100,,,,,,,,
O=C1NC(c2ccccc2)CN1S(=O)(=O)c1ccc2c(c1)CCCN2C(=O)C(F)(F)F (stereo not given),> 20,10.7,> 20,19.6,13.1,4.72,,,,,,,,
COc1ccc(NC(=O)N2CCCc3cc(S(=O)(=O)N4CC(C)(c5ccccc5)NC4=O)ccc32)cc1 (stereo not given),5.3,> 20,12.4,9.47,,15.9,,,,,,,,
O=C(c1ccccc1)N1CCCc2cc(S(=O)(=O)N3CC(c4ccccc4)NC3=O)ccc21 (stereo not given),8.14,19.3,1.22,8.56,14.3,5.34,,,,,,,,
CC(C)COC(=O)N1CCCc2cc(S(=O)(=O)N3CC(c4ccccc4)NC3=O)ccc21 (stereo not given),> 20,3.72,2.38,5.65,2.75,1.25,,,,,,,,
CSc1ccc(NC(=O)N2CCCc3cc(S(=O)(=O)N4CC(C)(c5ccccc5)NC4=O)ccc32)cc1 (stereo not given),> 20,> 20,> 20,> 20,,> 20,,,,,,,,
O=C1NC(c2ccccc2)CN1S(=O)(=O)c1ccc2c(c1)CCCN2 (stereo not given),> 20,7.23,> 20,10.4,> 20,4.25,,,,,,,,
CC1(c2ccccc2)CN(S(=O)(=O)c2ccc3c(c2)CCCN3C(=O)C(F)(F)F)C(=O)N1 (stereo not given),> 20,> 20,> 20,> 20,> 20,> 20,,,,,,,,
O=C(NC1CCCCC1)N1CCCc2cc(S(=O)(=O)N3CC(c4ccccc4)NC3=O)ccc21 (stereo not given),0.231,3.89,0.813,1.84,8.92,8.16,1.6,2,65.2,72.6,,,,
COc1cccc2c1C(=O)c1c(O)c3c(c(O)c1C2=O)C[C@@](O)(C(=O)CO)C[C@@H]3O[C@H]1C[C@H](N)[C@H](O)[C@H](C)O1 [DOXORUBICIN],,0.4,0.198,2.95,4.38,0.338,,,,,-1.6,-2.3,39.6,45

# The next lines start with results.
IC50 (A549) [µM],IC50 (COLO 205) [µM],IC50 (K562) [µM],IC50 (SK-OV-3) [µM],SMILES,IC50 [1] [µM],IC50 [2] [µM],Activity (Mus musculus [3]) [g],Activity (Mus musculus [4]) [g],inhibition in vivo at 65 mg/kg (NCI-H23 [5]) [%],inhibition in vivo at 65 mg/kg (SW-620 [6]) [%],Activity (Mus musculus [7]) [g],Activity (Mus musculus [8]) [g],TGI (NCI-H23 [9]) [%],TGI (SW-620 [10]) [%]
4.31,6.58,0.473,2.75,C=CCOC(=O)N1CCCc2cc(S(=O)(=O)N3CC(c4ccccc4)NC3=O)ccc21 (stereo not given),5.05,0.945,,,,,,,,
> 20,2.82,10.6,9.8,O=C(OCCCl)N1CCCc2cc(S(=O)(=O)N3CC(c4ccccc4)NC3=O)ccc21 (stereo not given),8.68,1.21,,,,,,,,
,11.2,1.09,,O=C(CCl)N1CCCc2cc(S(=O)(=O)N3CC(c4ccccc4)NC3=O)ccc21 (stereo not given),3.46,,,,,,,,,
0.344,2.78,> 20,2.88,CCOC(=O)N1CCCc2cc(S(=O)(=O)N3CC(c4ccccc4)NC3=O)ccc21 (stereo not given),11.2,1.43,,,,,,,,
> 20,4.11,3.68,9.57,CCCCOC(=O)N1CCCc2cc(S(=O)(=O)N3CC(c4ccccc4)NC3=O)ccc21 (stereo not given),4.01,2.08,,,,,,,,
1.03,1.42,> 20,3.92,CCCOC(=O)N1CCCc2cc(S(=O)(=O)N3CC(c4ccccc4)NC3=O)ccc21 (stereo not given),3.3,2.02,,,,,,,,
